Assay [1] addresses T1, ROS1 (Homo sapiens, UniProt P08922).
T1 construct: purchased Carna Biosciences 08-163
Briefly: ROS1 kinase inhibitory activity evaluation (mobility shift, EZ Reader II). Type of assay: biochemical. Particulars: ROS1 25 pg/μL, FL-Peptide 22 substrate, three separate measurements. The method, then: Next, a substrate reaction solution was prepared. […] Then, the reaction stop solution was added thereto at a concentration of 40 μL/well. Substrate phosphorylation intensity was measured using EZ Reader II (Caliper Life Sciences).

The target of assay [2] is T1, ROS1. Briefly: ROS1 autophosphorylation inhibitory activity evaluation (ADP-Glo). Type of assay: biochemical. The conditions noted are these: 200 nM inactive ROS1, ATP 1 mM, 25° C. 1.5 hours, ADP generated, four separate measurements. The method, then: Fifty mM HEPES (pH 7.5), 10 mM MgCl2, 0.01% Brij-58, and 2.5 mM DTT were mixed to prepare an enzymatic reaction solution. […] ATP (final concentration: 1 mM) was further added thereto at a concentration of 2.5 μL/well. The resulting plate was left standing at 25° C. for 1.5 hours to cause enzymatic reaction. After the completion of enzymatic reaction, ADP-Glo Reagent-1 (Promega, V9103) was added thereto at a concentration of 2.5 μL/well, and the plate was left standing at room temperature for 60 minutes. Then, ADP-Glo Reagent-2 (Promega) was added thereto at a concentration of 5 μL/well, and the plate was left standing at room temperature for 60 minutes. The amount of ADP generated by the autophosphorylation of ROS1 was measured using EnVision (PerkinElmer Japan). The amount of ADP generated in four separate measurements was defined as the autophosphorylation intensity of ROS1. IC50 values were calculated by curve fitting using GraphPad Prism version 4 (GraphPad software).

Assay [3] relates to HCC78 cells having ROS1 fusion gene. The assay is described as follows: HCC78 cell growth assay (CellTiter-Glo). The assay is classed as cell-based. Particulars: Homo sapiens, HCC78, 72 h, 72 hours culture, 2% FBS medium, luminescence, four separate measurements; read-out: growth inhibitory effect on HCC78 cells having ROS1 fusion gene IC50. The method, then: Each compound of the present invention was assayed for its cell growth inhibitory effect using HCC78 cells having ROS1 fusion gene.
The suspension was dispensed at a concentration of 100 μL/well to a 96-well culture plate for cell culture (SUMITOMO BAKELITE, Cat No MS-0096S) (hereinafter, referred to as an assay plate). […] In this context, the final concentration of DMSO was set to 0.4%. Then, the cells were cultured for 72 hours in a CO2 incubator.
CellTiter-Glo Luminescent Cell Viability Assay reagent (Promega, Cat No G7571) was dispensed at a concentration of 100 μL/well to the assay plate. The contents in each well were reacted at room temperature for 10 minutes while stirred using a plate mixer. […] The luminescence intensity of each well was measured using EnVision. The luminescence intensity of each well obtained in four separate measurements was defined as the number of cells. IC50 values were calculated by curve fitting using GraphPad Prism version 4.
Background: Cellular ATP, detected with luciferase, serves as a proxy for viable cell number.

IC50 data for 19 compounds are collected here from patent US9751887B2, “Imidazo[1,2-b]pyridazine derivatives as kinase inhibitors” (Daiichi Sankyo Company, Limited, priority 2012, dated 2017).

T1 sequence (P08922 28-2347): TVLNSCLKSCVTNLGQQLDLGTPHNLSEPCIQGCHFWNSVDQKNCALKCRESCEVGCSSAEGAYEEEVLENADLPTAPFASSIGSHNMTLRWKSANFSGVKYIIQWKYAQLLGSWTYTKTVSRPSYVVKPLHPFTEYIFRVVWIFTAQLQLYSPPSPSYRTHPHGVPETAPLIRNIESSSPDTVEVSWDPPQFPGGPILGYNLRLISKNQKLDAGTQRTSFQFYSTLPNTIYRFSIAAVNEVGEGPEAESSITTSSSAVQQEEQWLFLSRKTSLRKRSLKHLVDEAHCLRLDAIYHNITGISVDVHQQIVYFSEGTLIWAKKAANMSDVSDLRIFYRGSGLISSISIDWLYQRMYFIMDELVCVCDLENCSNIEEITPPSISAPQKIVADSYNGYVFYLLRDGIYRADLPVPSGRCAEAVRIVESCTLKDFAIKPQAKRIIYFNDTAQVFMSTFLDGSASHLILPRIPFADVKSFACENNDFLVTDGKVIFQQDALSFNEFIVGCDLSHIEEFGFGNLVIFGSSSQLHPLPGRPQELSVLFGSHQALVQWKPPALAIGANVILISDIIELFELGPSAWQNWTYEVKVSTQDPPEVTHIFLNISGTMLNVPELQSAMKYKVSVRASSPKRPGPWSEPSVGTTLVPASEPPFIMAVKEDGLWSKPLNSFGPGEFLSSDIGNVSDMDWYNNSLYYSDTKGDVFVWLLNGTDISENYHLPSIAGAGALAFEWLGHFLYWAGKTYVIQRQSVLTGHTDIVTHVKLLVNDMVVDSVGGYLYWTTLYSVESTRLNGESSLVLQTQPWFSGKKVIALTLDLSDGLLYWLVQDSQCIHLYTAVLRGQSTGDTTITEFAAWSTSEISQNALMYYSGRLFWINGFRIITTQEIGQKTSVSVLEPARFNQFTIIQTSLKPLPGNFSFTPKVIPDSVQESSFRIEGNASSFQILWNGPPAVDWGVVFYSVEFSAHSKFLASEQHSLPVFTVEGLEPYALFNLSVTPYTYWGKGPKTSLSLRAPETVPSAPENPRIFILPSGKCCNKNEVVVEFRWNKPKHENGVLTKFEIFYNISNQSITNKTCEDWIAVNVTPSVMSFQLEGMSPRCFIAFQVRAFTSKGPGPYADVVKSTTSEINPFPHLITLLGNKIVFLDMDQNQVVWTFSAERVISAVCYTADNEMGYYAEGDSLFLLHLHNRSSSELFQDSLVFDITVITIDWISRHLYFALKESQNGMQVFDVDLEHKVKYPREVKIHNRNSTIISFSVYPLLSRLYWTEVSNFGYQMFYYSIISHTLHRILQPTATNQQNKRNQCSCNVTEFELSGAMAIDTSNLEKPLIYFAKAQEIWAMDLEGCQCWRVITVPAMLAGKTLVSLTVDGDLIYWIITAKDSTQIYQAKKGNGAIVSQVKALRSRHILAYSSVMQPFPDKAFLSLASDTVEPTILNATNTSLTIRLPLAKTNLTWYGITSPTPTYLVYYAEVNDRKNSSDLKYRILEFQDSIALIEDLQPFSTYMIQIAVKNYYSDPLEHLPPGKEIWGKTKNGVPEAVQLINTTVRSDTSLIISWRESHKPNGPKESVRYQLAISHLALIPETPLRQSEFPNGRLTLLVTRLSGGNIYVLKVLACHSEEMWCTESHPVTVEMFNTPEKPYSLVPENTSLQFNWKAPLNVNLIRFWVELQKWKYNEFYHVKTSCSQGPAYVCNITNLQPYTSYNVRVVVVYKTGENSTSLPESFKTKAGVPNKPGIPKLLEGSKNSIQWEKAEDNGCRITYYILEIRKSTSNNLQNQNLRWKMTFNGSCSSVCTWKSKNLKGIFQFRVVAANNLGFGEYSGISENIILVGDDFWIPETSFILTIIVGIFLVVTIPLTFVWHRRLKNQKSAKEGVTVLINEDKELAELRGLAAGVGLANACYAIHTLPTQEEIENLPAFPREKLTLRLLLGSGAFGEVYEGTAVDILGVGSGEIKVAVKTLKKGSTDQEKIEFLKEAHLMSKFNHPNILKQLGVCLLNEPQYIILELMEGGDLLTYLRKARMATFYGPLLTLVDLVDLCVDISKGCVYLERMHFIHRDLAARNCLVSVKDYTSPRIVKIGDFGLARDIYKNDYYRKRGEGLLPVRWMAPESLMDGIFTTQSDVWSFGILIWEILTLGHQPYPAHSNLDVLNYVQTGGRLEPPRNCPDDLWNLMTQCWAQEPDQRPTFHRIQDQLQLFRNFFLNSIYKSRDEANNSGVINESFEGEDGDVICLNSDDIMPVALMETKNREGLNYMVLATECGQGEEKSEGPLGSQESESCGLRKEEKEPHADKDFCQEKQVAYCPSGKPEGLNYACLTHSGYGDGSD

For orientation: IC50 means the concentration that inhibits the measured activity by half. Consider `C[C@@H](Nc1ccc2ncc(-c3ccc(OCC(N)CO)cc3)n2n1)c1cccc(F)c1` (stereo partly drawn) [Example 45, 2-Amino-3-[4-[6-[[(1R)-1-(3-fluorophenyl)ethyl]amino]imidazo[1,2-b]pyridazin-3-yl]phenoxy]propan-1-ol], for which the IC50 in assay [1] is under 1 nM; in assay [2], under 20 nM; in assay [3], under 20 nM.

With `CNCCOc1ccc(-c2cnc3ccc(N[C@H](C)c4cccc(F)c4)nn23)cn1` [Example 46, N-[(1R)-1-(3-Fluorophenyl)ethyl]-3-[6-[2-(methylamino)ethoxy]-3-pyridyl]imidazo[1,2-b]pyridazin-6-amine], the IC50 in assay [1] was under 1 nM; in assay [2], under 20 nM; in assay [3] it was under 20 nM.

Regarding `C[C@@H](Nc1ccc2ncc(-c3ccc(OC[C@@H]4C[C@H](F)CN4)nc3)n2n1)c1cccc(F)c1` [Example 47, N-[(1R)-1-(3-Fluorophenyl)ethyl]-3-[6-[[(2S,4S)-4-fluoropyrrolidin-2-yl]methoxy]-3-pyridyl]imidazo[1,2-b]pyridazin-6-amine], the half-inhibitory concentration (IC50) is under 1 nM in assay [1], under 20 nM in assay [2] and under 20 nM in assay [3].

Regarding `C[C@@H](Nc1ccc2ncc(-c3ccc(OC[C@@H]4CCCN4)c(C#N)c3)n2n1)c1cccc(F)c1` [Example 48, 5-[6-[[(1R)-1-(3-Fluorophenyl)ethyl]amino]imidazo[1,2-b]pyridazin-3-yl]-2-[[(2S)-pyrrolidin-2-yl]methoxy]benzonitrile], the IC50 was under 1 nM in assay [1], under 20 nM in assay [2] and under 20 nM in assay [3].

Regarding `CC[C@H](N)COc1ccc(-c2cnc3ccc(N[C@H](C)c4cccc(F)c4)nn23)cc1` [Example 49, 3-[4-[(2S)-2-Aminobutoxy]phenyl]-N-[(1R)-1-(3-fluorophenyl)ethyl]imidazo[1,2-b]pyridazin-6-amine], the figures for the 50% inhibitory concentration (IC50) in assay [1], in assay [2] and in assay [3] were under 1 nM, under 20 nM and under 20 nM, respectively.

`C[C@@H](Nc1ccc2ncc(-c3cccc(OC[C@@H]4CCCN4)c3)n2n1)c1cccc(F)c1` [Example 50, N-[(1R)-1-(3-Fluorophenyl)ethyl]-3-[3-[[(2S)-pyrrolidin-2-yl]methoxy]phenyl]imidazo[1,2-b]pyridazin-6-amine]: the 50% inhibitory concentration (IC50) is under 1 nM in assay [1], under 20 nM in assay [2] and 20 to 100 nM in assay [3].

`C[C@@H](Nc1ccc2ncc(-c3ccc(O[C@H]4C[C@H](N)C4)cc3)n2n1)c1cccc(F)c1` [Example 51]: the IC50 in assay [1] is 1 to 10 nM; in assay [2] it was under 20 nM; in assay [3], 20 to 100 nM.

Consider `CC[C@@H](N)COc1ccc(-c2cnc3ccc(N[C@H](C)c4cccc(F)c4)nn23)cc1` [Example 52, 3-[4-[(2R)-2-Aminobutoxy]phenyl]-N-[(1R)-1-(3-fluorophenyl)ethyl]imidazo[1,2-b]pyridazin-6-amine], for which the IC50 in assay [1] is under 1 nM; in assay [2] it was under 20 nM; in assay [3], 20 to 100 nM.

With `C[C@@H](N)COc1ccc(-c2cnc3ccc(N[C@H](C)c4cccc(F)c4)nn23)cn1` [Example 53, 3-[6-[(2R)-2-Aminopropoxy]-3-pyridyl]-N-[(1R)-1-(3-fluorophenyl)ethyl]imidazo[1,2-b]pyridazin-6-amine], the IC50 in assay [1] is under 1 nM; in assay [2], under 20 nM; in assay [3] it was under 20 nM.

In the case of `C[C@@H](Nc1ccc2ncc(-c3ccc(OC[C@@H](N)[C@@H](C)O)cc3)n2n1)c1cccc(F)c1` [Example 54, (2R,3R)-3-Amino-4-[4-[6-[[(1R)-1-(3-fluorophenyl)ethyl]amino]imidazo[1,2-b]pyridazin-3-yl]phenoxy]butan-2-ol], the IC50 in assay [1] is under 1 nM; in assay [2], under 20 nM; in assay [3] it was under 20 nM.

With `C[C@H](O)[C@@H](N)COc1ccc(-c2cnc3ccc(N[C@H](C)c4cccc(F)c4)nn23)cc1` [Example 55, (2S,3S)-3-Amino-4-[4-[6-[[(1R)-1-(3-fluorophenyl)ethyl]amino]imidazo[1,2-b]pyridazin-3-yl]phenoxy]butan-2-ol], the IC50 in assay [1] was under 1 nM; in assay [2] it was under 20 nM; in assay [3], under 20 nM.

Take `C[C@@H](Nc1ccc2ncc(-c3ccc(OC[C@@H](N)CO)cc3)n2n1)c1cccc(F)c1` [Example 56, (2S)-2-Amino-3-[4-[6-[[(1R)-1-(3-fluorophenyl)ethyl]amino]imidazo[1,2-b]pyridazin-3-yl]phenoxy]propan-1-ol]: the IC50 in assay [1] was under 1 nM; in assay [2], under 20 nM; in assay [3] it was under 20 nM.

Regarding `C[C@@H](Nc1ccc2ncc(-c3cccc(OC[C@@H]4CCN4)c3)n2n1)c1cccc(F)c1` [Example 57, 3-[3-[[(2S)-Azetidin-2-yl]methoxy]phenyl]-N-[(1R)-1-(3-fluorophenyl)ethyl]imidazo[1,2-b]pyridazin-6-amine], the IC50 in assay [1] fell in the range of 1 to 10 nM; in assay [2], 20 to 100 nM; in assay [3] it was 20 to 100 nM.

With `CNCCOc1cccc(-c2cnc3ccc(N[C@H](C)c4cccc(F)c4)nn23)c1` [Example 58, N-[(1R)-1-(3-Fluorophenyl)ethyl]-3-[3-[2-(methylamino)ethoxy]phenyl]imidazo[1,2-b]pyridazin-6-amine], the IC50 in assay [1] is 1 to 10 nM; in assay [2], under 20 nM; in assay [3], 20 to 100 nM.

Consider `C[C@@H](Nc1ccc2ncc(-c3ccc(OC[C@H](N)CO)cc3)n2n1)c1cccc(F)c1` [Example 59, (2R)-2-Amino-3-[4-[6-[[(1R)-1-(3-fluorophenyl)ethyl]amino]imidazo[1,2-b]pyridazin-3-yl]phenoxy]propan-1-ol], for which the concentration for half-maximal inhibition (IC50) in assay [1] was under 1 nM; in assay [2], under 20 nM; in assay [3], under 20 nM.

As to `C[C@@H](N)COc1cccc(-c2cnc3ccc(N[C@H](C)c4cccc(F)c4)nn23)c1` [Example 60, 3-[3-[(2R)-2-Aminopropoxy]phenyl]-N-[(1R)-1-(3-fluorophenyl)ethyl]imidazo[1,2-b]pyridazin-6-amine], the IC50 in assay [1] is 1 to 10 nM; in assay [2], under 20 nM; in assay [3] it was 20 to 100 nM.

Take `C[C@@H](Nc1ccc2ncc(-c3ccc(O[C@H]4C[C@@H](N)C4)cc3)n2n1)c1cccc(F)c1` [Example 61, 3-[4-(3-cis-Aminocyclobutoxy)phenyl]-N-[(1R)-1-(3-fluorophenyl)ethyl]imidazo[1,2-b]pyridazin-6-amine]: the IC50 in assay [1] is 1 to 10 nM; in assay [2], under 20 nM; in assay [3] it was 20 to 100 nM.

As for `C[C@@H](Nc1ccc2ncc(-c3cc(F)cc(OC[C@@H]4CCN4)c3)n2n1)c1cccc(F)c1` [Example 62, 3-[3-[[(2S)-Azetidin-2-yl]methoxy]-5-fluoro-phenyl]-N-[(1R)-1-(3-fluorophenyl)ethyl]imidazo[1,2-b]pyridazin-6-amine], the values for the IC50 in assay [1], in assay [2] and in assay [3] were under 1 nM, 20 to 100 nM and 20 to 100 nM, respectively.

As to `C[C@H](N)COc1ccc(-c2cnc3ccc(N[C@H](C)c4cccc(F)c4)nn23)cn1` [Example 63, 3-[6-[(2S)-2-Aminopropoxy]-3-pyridyl]-N-[(1R)-1-(3-fluorophenyl)ethyl]imidazo[1,2-b]pyridazin-6-amine], the 50% inhibitory concentration (IC50) in assay [1] was under 1 nM; in assay [2] it was under 20 nM; in assay [3] it was under 20 nM.
